25 compounds from ChEMBL document CHEMBL6083278, “Unnatural Amino Acids: Strategies, Designs, and Applications in Medicinal Chemistry and Drug Discovery” (J Med Chem, 2024) can be followed below.

The nature of data set [1]: Inhibition of GABA-A receptor (unknown origin). Details: species or system Homo sapiens.
In data set [2] the target is Melanocortin receptor 3 (Homo sapiens, UniProt P41968). Kind of data set: Inhibition of MC3R (unknown origin).
In data set [3] the target is G-protein coupled receptor 52 (Homo sapiens, UniProt Q9Y2T5). Kind of data set: Agonist activity at human GPR52 expressed in CHO cells assessed as increase in intracellular cAMP level incubated for 30 mins by Alphascreen assay. It is filed as functional, cell-based. (In general: Cyclic AMP is a second messenger, typically raised through Gs and lowered through Gi signalling.)
G-protein coupled receptor 52, sequence (Q9Y2T5 whole entry): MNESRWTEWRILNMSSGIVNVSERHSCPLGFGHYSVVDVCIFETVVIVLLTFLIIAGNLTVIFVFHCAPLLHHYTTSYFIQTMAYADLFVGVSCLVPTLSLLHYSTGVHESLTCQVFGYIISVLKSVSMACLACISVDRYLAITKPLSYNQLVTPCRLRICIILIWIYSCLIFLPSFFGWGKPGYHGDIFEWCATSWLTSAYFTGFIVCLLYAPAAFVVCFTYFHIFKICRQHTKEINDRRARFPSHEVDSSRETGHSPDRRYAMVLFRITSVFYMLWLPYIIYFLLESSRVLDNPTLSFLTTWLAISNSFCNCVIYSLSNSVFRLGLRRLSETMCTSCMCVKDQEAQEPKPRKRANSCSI

For data set [4], the target named is Replicase polyprotein 1a (Severe acute respiratory syndrome-related coronavirus, UniProt P0C6U8). As to the kind of experiment: Inhibition of SARS-CoV MPro using Dabcyl-KTSAVLQSGFRKM-E(Edans)-NH2 as substrate preincubated for 15 mins followed by substrate addition measured after 30 mins by FRET assay.
For data set [5], the system named is Candida albicans. Kind of data set: Antifungal activity against Candida albicans ATCC 10231 assessed as fungal growth inhibition. Format: functional, organism-based.
Data set [6] deals with Cryptococcus neoformans. As to the kind of experiment: Antifungal activity against Cryptococcus neoformans ATCC 32045 assessed as inhibition of fungal growth incubated for 72 hrs by broth microdilution method. Format: functional. Background: Dilution methods test growth across graded concentrations, often in twofold steps.
The subject of data set [7] is Staphylococcus aureus. As to the kind of experiment: Antibacterial activity against Staphylococcus aureus assessed as reduction in microbial growth by CLSI based broth microdilution method. Format: functional.
Data set [8] concerns Enterococcus faecalis. Kind of data set: Antibacterial activity against Enterococcus faecalis ATCC 29212 assessed as bacterial growth inhibition by agar diffusion assay. It is filed as functional.
Data set [9] relates to Acinetobacter baumannii. Kind of data set: Antibacterial activity against Acinetobacter baumannii ATCC 17978 assessed as reduction in microbial growth after 24 hrs by CLSI based Mueller-Hinton broth assay. It is filed as functional.
For data set [10], the system named is Escherichia coli. Kind of data set: Antimicrobial activity against Escherichia coli ATCC 25922 assessed as reduction in microbial growth after 24 hrs by CLSI based Mueller-Hinton broth assay. Format: functional.
For data set [11], the system named is Klebsiella pneumoniae. As to the kind of experiment: Antimicrobial activity against Klebsiella pneumoniae ATCC 13882 assessed as reduction in microbial growth after 24 hrs by CLSI based Mueller-Hinton broth assay. It is filed as functional.
The subject of data set [12] is Pseudomonas aeruginosa. Kind of data set: Antimicrobial activity against Pseudomonas aeruginosa ATCC 27853 assessed as reduction in microbial growth after 24 hrs by CLSI based Mueller-Hinton broth assay. Format: functional.
Data set [13] deals with Escherichia coli. Kind of data set: Antibacterial activity against Escherichia coli K12 assessed as reduction in bacterial growth incubated for 16 hrs by Broth micro-dilution assay. Format: functional.
In data set [14] the test system is Pseudomonas aeruginosa. As to the kind of experiment: Antibacterial activity against Pseudomonas aeruginosa PAO1 assessed as bacterial growth inhibition by CLSI protocol based microdilution method. It is filed as functional.
The test system of data set [15] is Acinetobacter baumannii. Kind of data set: Antibacterial activity against Acinetobacter baumannii ATCC 19606 assessed as reduction in microbial growth after 16 hrs by broth microdilution method. It is filed as functional.
Data set [16] deals with Staphylococcus aureus. As to the kind of experiment: Antibacterial activity against Staphylococcus aureus ATCC 25923 assessed as reduction in bacterial growth incubated for 18 to 20 hrs by broth microdilution assay. Format: functional. Particulars: time 18-20 hrs.
The target in data set [17] is Mu-type opioid receptor (Homo sapiens, UniProt P35372). Kind of data set: Agonist activity at MOR (unknown origin). It is filed as functional.
Mu-type opioid receptor, sequence (P35372 whole entry): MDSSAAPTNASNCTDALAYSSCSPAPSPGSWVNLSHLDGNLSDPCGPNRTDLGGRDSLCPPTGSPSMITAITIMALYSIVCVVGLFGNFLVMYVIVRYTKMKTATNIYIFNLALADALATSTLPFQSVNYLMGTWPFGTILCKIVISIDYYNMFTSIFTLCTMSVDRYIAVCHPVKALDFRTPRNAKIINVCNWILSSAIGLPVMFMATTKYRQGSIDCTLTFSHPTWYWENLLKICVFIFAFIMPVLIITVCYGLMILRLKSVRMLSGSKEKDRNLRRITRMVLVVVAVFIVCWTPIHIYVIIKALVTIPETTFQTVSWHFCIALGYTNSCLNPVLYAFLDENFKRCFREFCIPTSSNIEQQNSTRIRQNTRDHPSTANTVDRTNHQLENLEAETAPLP
Data set [18] concerns the target Amyloid-beta precursor protein (Homo sapiens) (UniProt P05067). As to the kind of experiment: Inhibition of amyloid beta42 (unknown origin) aggregation at 10 uM measured after 5 mins by ThT fluorescence based assay relative to control.
Data set [19] concerns HeLa. Kind of data set: Antiproliferative activity against human HeLa cells assessed as reduction in cell viability by MTT assay. It is filed as functional, cell-based. (Formazan colour is commonly taken as a measure of viable cells.)
The nature of data set [20]: Half life in human plasma. It is filed as ADME, cell-free.
Data set [21] addresses Tyrosine-protein kinase FRK (Homo sapiens, UniProt P42685). As to the kind of experiment: Inhibition of FRK (unknown origin).
Data set [22] deals with Escherichia coli. Kind of data set: Antibacterial activity against Escherichia coli ATCC 25922 assessed as bacterial growth inhibition. It is filed as functional.
Data set [23] in a line: Binding affinity to SETD8 (unknown origin) assessed as dissociation constant. Details: species or system Homo sapiens.

Converted amounts (≈) assume the structure as drawn. Bridge positions count the residues as written; N and C are the ends. Square brackets hold non-standard residues; d marks the D form. Peptide text beside a SMILES is read from it. * marks the point of attachment. Bip = N[C@@H](Cc1ccc(-c2ccccc2)cc1)C(=O)O; dPhe(4-I) = N[C@H](Cc1ccc(I)cc1)C(=O)O; NMe2Val = CC(C)[C@@H](C(=O)*)N(C)C; NMeI = CC[C@H](C)[C@H](NC)C(=O)O; NMeT = CN[C@H](C(=O)O)[C@@H](C)O; 4Pal = N[C@@H](Cc1ccncc1)C(=O)O; Tic = O=C(O)[C@@H]1Cc2ccccc2CN1; NMeL = CN[C@@H](CC(C)C)C(=O)O; S5 = C=CCCC[C@](C)(N)C(=O)O; Hiv = CC(C)[C@H](O)C(=O)O; NMeS = CN[C@@H](CO)C(=O)O; Octanoyl = CCCCCCCC(=O)*; dNMeA = CN[C@H](C)C(=O)O; Sar = CNCC(=O)O

Melanocortin receptor 3, sequence (P41968 whole entry): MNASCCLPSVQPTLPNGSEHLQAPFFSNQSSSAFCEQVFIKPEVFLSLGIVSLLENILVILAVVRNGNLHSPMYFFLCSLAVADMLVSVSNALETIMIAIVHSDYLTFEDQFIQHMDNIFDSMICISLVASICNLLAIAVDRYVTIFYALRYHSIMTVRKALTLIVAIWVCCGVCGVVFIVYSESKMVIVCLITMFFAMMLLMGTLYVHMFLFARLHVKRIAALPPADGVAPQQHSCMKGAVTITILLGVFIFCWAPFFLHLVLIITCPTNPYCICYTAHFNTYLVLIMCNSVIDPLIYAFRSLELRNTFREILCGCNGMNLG
Tyrosine-protein kinase FRK, sequence (P42685 whole entry): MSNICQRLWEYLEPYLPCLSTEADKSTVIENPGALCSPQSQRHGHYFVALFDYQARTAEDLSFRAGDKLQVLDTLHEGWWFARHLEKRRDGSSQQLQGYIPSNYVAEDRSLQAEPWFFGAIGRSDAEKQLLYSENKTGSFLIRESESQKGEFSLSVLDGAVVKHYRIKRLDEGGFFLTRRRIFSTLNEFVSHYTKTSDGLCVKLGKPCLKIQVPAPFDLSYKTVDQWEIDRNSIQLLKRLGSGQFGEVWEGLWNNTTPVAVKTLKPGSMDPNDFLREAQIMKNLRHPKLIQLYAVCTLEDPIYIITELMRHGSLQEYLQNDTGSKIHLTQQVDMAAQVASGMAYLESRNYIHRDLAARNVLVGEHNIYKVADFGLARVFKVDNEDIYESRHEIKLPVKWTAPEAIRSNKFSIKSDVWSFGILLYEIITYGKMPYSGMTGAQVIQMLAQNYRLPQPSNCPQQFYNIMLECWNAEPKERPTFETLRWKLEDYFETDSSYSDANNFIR
Amyloid-beta precursor protein (Homo sapiens), sequence (P05067 whole entry): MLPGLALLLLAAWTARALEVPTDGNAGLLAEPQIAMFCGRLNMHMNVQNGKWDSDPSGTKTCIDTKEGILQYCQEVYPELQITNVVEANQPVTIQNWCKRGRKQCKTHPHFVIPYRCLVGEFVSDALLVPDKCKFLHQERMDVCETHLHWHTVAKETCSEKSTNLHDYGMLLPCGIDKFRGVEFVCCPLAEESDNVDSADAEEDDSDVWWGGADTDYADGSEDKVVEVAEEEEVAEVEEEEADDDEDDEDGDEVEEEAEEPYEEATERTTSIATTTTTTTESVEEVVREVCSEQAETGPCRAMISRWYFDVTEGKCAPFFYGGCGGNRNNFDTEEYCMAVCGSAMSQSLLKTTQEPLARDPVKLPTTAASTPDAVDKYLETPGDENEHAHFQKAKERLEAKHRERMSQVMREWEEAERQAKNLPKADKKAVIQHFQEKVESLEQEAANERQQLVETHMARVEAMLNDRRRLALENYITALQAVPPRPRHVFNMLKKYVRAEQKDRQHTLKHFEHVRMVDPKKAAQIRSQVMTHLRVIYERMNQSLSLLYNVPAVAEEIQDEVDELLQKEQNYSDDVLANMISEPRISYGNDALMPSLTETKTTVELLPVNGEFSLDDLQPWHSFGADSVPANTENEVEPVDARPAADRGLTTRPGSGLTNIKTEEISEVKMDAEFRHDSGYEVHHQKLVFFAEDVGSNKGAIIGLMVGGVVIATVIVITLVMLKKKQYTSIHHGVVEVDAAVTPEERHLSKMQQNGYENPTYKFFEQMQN

Broadly, the IC50 is the point on the concentration scale where inhibition reaches its midpoint. Compound `N[C@H]1C[C@@H](C(=O)O)C[C@@H]1F` returned a 50% inhibitory concentration (IC50) in [1] of 50 nM.

On to `CC(=O)N[C@@H](Cc1cnc[nH]1)C(=O)N[C@H](Cc1ccccc1)C(=O)N[C@@H](CCCN=C(N)N)C(=O)N[C@@H](Cc1c[nH]c2ccccc12)C(N)=O`, for which, in data set [2], it took 560 nM to reach half-maximal inhibition (IC50).

As usually defined, the EC50 is the concentration that produces a half-maximal response. Consider `CSCC[C@H](NC(=O)[C@@H]1CCCN1C(=O)CNC(=O)[C@H](CCCCN)NC(=O)[C@H](Cc1cnc[nH]1)NC(=O)[C@H](CO)NC(=O)[C@H](CC(C)C)NC(=O)[C@H](CCCNC(=N)N)NC(=O)[C@@H]1CCCN1C(=O)[C@H](CCCNC(=N)N)NC(=O)[C@@H](N)CCC(N)=O)C(=O)N1CCC[C@H]1C(=O)N[C@@H](Cc1ccccc1)C(=O)O`, for which, in [3], the EC50 came to 1.4 nM.

`N[C@H]1C=C(C(=O)O)C[C@@H]1F` displayed a half-maximal inhibitory concentration (IC50) in data set [1] of 20 nM.

As to `O=C[C@H](C[C@@H]1CCNC1=O)NC(=O)[C@H](Cc1cccc(F)c1)NC(=O)c1cc2ccccc2[nH]1`, the IC50 in data set [4] came to 40 nM.

The compound `O=C[C@H](C[C@@H]1CCNC1=O)NC(=O)[C@H](CC1CCCCC1)NC(=O)c1cc2ccccc2[nH]1` gave a concentration for half-maximal inhibition (IC50) in data set [4] of 53 nM.

As for `Cc1ccc(C[C@H](NC(=O)[C@@H](Cc2ccccc2)NC(=O)[C@@H](Cc2c[nH]c3ccccc23)NC(=O)[C@@H](N)CCCN)C(=O)N[C@H](Cc2ccccc2)C(=O)N[C@@H](Cc2cn(Cc3ccccc3)cn2)C(N)=O)cc1`, in [5], the IC50 amounted to 15.3 µg/mL (≈ 15.3 µM).

As a reminder, the MIC is the smallest concentration in the dilution series that meets the test's criterion for growth inhibition. For the compound `CCCCc1ccc(-n2cnc(C[C@H](NC(=O)[C@H](Cc3c[nH]c4ccccc34)NC(=O)[C@@H](N)Cc3cn(-c4ccc(CCCC)cc4)cn3)C(=O)NCc3ccccc3)c2)cc1`, the MIC in [6] turned out to be 2.46 µg/mL (≈ 2.96 µM).

For the compound `CC(C)(C)c1cc(Cn2cnc(C[C@H](NC(=O)[C@@H](N)Cc3c[nH]c4ccccc34)C(=O)NCc3ccccc3)c2)cc(C(C)(C)C)c1`, the MIC was found to be 4.4 µg/mL in data set [7] and 8 µg/mL (≈ 12.6 µM) in data set [8].

For `CC(C)C[C@@H]1NC(=O)[C@@H](Cc2ccccc2)NC(=O)[C@@H](CCN)NC(=O)[C@@H](NC(=O)[C@H](CCN)NC(=O)[C@@H](NC(=O)[C@H](CCN)NC(=O)C[C@H](CN)C2CCCCC2)[C@@H](C)O)CCNC(=O)[C@H]([C@@H](C)O)NC(=O)[C@H](CCN)NC(=O)[C@H](CCN)NC1=O`, the MIC stood at 0.25 µg/mL in [9], 0.06 µg/mL in data set [10], 0.125 µg/mL in data set [11] and 0.06 µg/mL in [12].

For `CC[C@H](C)[C@H](NC(=O)[C@H](CC1CCCCC1)NC(=O)[C@@H](Cc1c[nH]c2ccccc12)NC(=O)[C@@H](N)CCCN)C(=O)N[C@H](Cc1ccccc1)C(=O)N[C@@H](Cc1cn(Cc2ccccc2)cn1)C(N)=O`, the IC50 in data set [5] came to 1 µg/mL (≈ 1.04 µM).

Turning to `CC(=O)N[C@@H](Cc1c[nH]cn1)C(=O)N[C@H](Cc1ccc(I)cc1)C(=O)N[C@@H](CCCNC(=N)N)C(=O)N1Cc2ccccc2C[C@H]1C(N)=O` (Ac-H[dPhe(4-I)]R[Tic]-NH2), the IC50 in [2] is 290 nM.

`CC(=O)N[C@@H](Cc1ccncc1)C(=O)N[C@H](Cc1ccc(I)cc1)C(=O)N[C@@H](CCCNC(=N)N)C(=O)N[C@@H](Cc1c[nH]c2ccccc12)C(N)=O` (Ac-[4Pal][dPhe(4-I)]RW-NH2) registered a half-maximal inhibitory concentration (IC50) in data set [2] of 7 nM.

Turning to `C=CCCC[C@](C)(NC(=O)[C@H](CCCCN)NC(=O)[C@H](CC(C)C)NC(=O)[C@@H](N)Cc1ccccc1)C(=O)N[C@@H](CC(C)C)C(=O)N[C@@H](CCCCN)C(=O)N[C@@H](CCCCN)C(=O)N[C@@H](CC(C)C)C(=O)N[C@@H](CC(C)C)C(N)=O` (H-FLK[S5]LKKLL-NH2), the minimal inhibitory concentration (MIC) is 8 µg/mL (≈ 7.01 µM) in [13], 8 µg/mL (≈ 7.01 µM) in data set [14], 4 µg/mL in data set [15] and 4 µg/mL (≈ 3.51 µM) in data set [16].

The compound `CN(CC(=O)O)C(=O)[C@H](Cc1ccccc1)NC(=O)[C@@H](CCCN=C(N)N)NC(=O)[C@@H](N)Cc1ccc(O)cc1` (H-Y[dR]F[Sar]-OH) came in with an EC50 in data set [17] of 90 nM.

What is called inhibition is the change of the read-out against control, counted positive when it falls. Low readings indicate a response near the control, high ones a response far below the control. The compound `CC[C@H](C)[C@H](NC(=O)[C@@H](NC(=O)[C@H](N)Cc1ccccc1)C(C)C)C(=O)N[C@@H](C)C(N)=O` (H-[dF]VIA-NH2) registered an inhibition in data set [18] of 100%.

In the case of `CC[C@H](C)[C@H]1C(=O)N[C@@H](C)C(=O)N(C)[C@@H](CC(C)C)C(=O)N[C@@H](Cc2ccc(OC)cc2)C(=O)N(C)[C@H](C)C(=O)O[C@H](C)[C@H](N(C)C(=O)[C@H](CC(C)C)N(C)C(=O)[C@H](COC)N(C)C(=O)[C@@H](OC(=O)[C@H](C(C)C)N(C)C)C(C)C)C(=O)N(C)[C@@H](COC)C(=O)N1C` (NMe2Val-[Hiv][NMeS](Me)[NMeL][NMeT][NMeS](Me)[NMeI]A[NMeL]Y(Me)[dNMeA]; ester 4-C), the IC50 in [19] amounted to 1.4 nM.

In the case of `CCCCCCCC(=O)N[C@@H](Cc1cnc[nH]1)C(=O)N[C@H](Cc1ccccc1)C(=O)N[C@@H](CCCNC(=N)N)C(=O)N[C@@H](Cc1ccc(-c2ccccc2)cc1)C(N)=O` (Octanoyl-H[dF]R[Bip]-NH2), in data set [2], inhibition was half-maximal at 50 nM (IC50).

Compound `N=C(N)NCCC[C@@H]1C(=O)N[C@@H](Cc2ccccc2)C(=O)N(CC(N)=O)CCNC(=O)NCCCCCCN1C(=O)[C@@H](N)Cc1ccc(O)cc1` (mixture of isomers) displayed a half-maximal effective concentration (EC50) in [17] of 46 nM.

In [4], `CC[C@H](C)[C@H]1C(=O)N2CCC[C@H]2C(=O)O[C@H](C(C)(C)C)C[C@@H](C)C[C@H](O)[C@H](C)C2=N[C@@H](CCC(=O)N[C@@H](Cc3ccc(OC)cc3)C(=O)N(C)[C@@H](C)C(=O)N1C)CS2` [APRATOXIN S4] yielded an IC50 of 170 nM.

Broadly, the half-life is the time needed for the level to fall by half in the phase considered. The low end stands for fast loss, the high end for slow loss. Take `C[C@@H](O)[C@@H]1NC(=O)[C@H](CCCCN)NC(=O)[C@@H](Cc2c[nH]c3ccccc23)NC(=O)[C@H](Cc2ccccc2)NC(=O)[C@@H](NC(=O)[C@H](N)Cc2ccccc2)CSSC[C@@H](C(=O)N[C@H](CO)[C@@H](C)O)NC1=O` [OCTREOTIDE]: the half-life in [20] is 1.5 h.

On to `Nc1nc2[nH]cc(CCc3ccc(C(=O)N[C@@H](CCC(=O)O)C(=O)O)cc3)c2c(=O)[nH]1` [PEMETREXED], for which, in data set [21], the half-inhibitory concentration (IC50) amounted to 42 nM.

Consider H-FLKLLKKLL-NH2, for which the MIC in data set [13] was 32 µg/mL; in data set [14] it was 8 µg/mL; in data set [15], 16 µg/mL; in [16], 16 µg/mL.

In the case of H-KKKKKKAAFAAWAAFAA-NH2, the minimum inhibitory concentration (MIC) in [22] is 1.6 µM.

As usually defined, the Kd is the free concentration of one partner at which half of the binding sites on the other are occupied at equilibrium, for simple one-to-one binding. With H-KRHRKVLR-OH, in data set [23], the dissociation constant Kd was found to be 46000 nM.
